US11066408B2, “Crystalline binary sodium salts of 5-methyl-(6S)-tetrahydrofolic acid with organic bases” (MERCK PATENT GMBH, priority 2017, dated 2021)

Procedure: The measurement of the kinetic solubility was conducted as described in the experimental part.
0.5 ml of purified/de-ionized water (for instance water for chromatography) is added.
2.535 ml of purified/de-ionized water (for instance water for chromatography) is added to the solid using an adjustable volumetric pipette. The mixture is vigorously agitated at room temperature and briefly sonicated.
Then 0.785 ml of purified/de-ionized water is added.
Then 1.0 ml of purified/de-ionized water is added.

CN1c2c([nH]c(N)nc2=O)NC[C@@H]1CNc1ccc(C(=O)N[C@@H](CCC(=O)[O-])C(=O)[O-])cc1.[Ca+2] [calcium salt of 5-methyl-(6S)-tetrahydrofolic acid]
kinetic solubility in water (purified/de-ionized water, room temperature, agitated (briefly sonicated), not assay corrected): smaller than 10 mg per 1 ml of water
time until a clear solution is obtained (weighed solid plus water, agitated at room temperature): No clear solution can be obtained
